Targets include Cytochrome P450 2D6 (Homo sapiens, UniProt P10635); Cytochrome P450 3A4 (Homo sapiens, UniProt P08684); Cytochrome P450 2C9 (Homo sapiens, UniProt P11712).
The target of assay [1] is T1, Corticotropin-releasing factor receptor 2/Corticotropin-releasing factor-binding protein (Homo sapiens, UniProt P24387+Q13324).
T1 sequence (Q13324 whole entry): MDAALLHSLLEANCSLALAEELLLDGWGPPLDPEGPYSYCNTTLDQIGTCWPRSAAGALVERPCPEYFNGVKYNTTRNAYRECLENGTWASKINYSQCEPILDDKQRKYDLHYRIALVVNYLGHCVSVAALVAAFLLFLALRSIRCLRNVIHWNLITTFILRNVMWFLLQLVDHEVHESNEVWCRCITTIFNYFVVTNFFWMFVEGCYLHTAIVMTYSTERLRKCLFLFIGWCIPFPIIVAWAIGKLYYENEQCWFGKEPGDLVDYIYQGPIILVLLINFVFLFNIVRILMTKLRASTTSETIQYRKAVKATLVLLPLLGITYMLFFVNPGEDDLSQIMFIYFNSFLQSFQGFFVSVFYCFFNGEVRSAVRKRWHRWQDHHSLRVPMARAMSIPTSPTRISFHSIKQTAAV
T1 sequence (P24387 whole entry): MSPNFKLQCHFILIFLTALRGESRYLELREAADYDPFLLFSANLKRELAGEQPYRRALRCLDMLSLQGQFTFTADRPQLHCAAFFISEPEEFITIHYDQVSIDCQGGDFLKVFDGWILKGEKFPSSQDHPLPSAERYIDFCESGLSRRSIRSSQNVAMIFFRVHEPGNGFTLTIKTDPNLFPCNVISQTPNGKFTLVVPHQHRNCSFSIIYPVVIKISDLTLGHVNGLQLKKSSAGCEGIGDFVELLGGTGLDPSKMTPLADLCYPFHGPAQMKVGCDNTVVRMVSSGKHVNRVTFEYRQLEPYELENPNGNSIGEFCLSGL
As to the kind of experiment: activators of CRF receptor 2 with binding protein – uHTS hits, confirmation (AID 602473). As to conditions: read-out: EC50_Mean. The class given is functional.

Another assay has as its system Streptococcus. The experiment in a line: GAS UMAA2166 growth inhibition – luminescence, BacTiterGlo, counter-screen for streptokinase expression inhibitor project, dose response (AID 1915).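 Also: potency for reduction of bacterial viability or growth.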 The class given is functional, organism-based. In general terms: A counterscreen serves to expose hits that act by an unwanted route or on another target.
For assay [2], the system named is Streptococcus sp. 'group A'. As to the kind of experiment: Streptococcus pyogenes SK(-)GAS viability under kanamycin – luminescence, BacTiterGlo, confirmation, counter-screen for streptokinase expression inhibitor project, dose response (AID 1900). The format is functional, organism-based.
The target in another assay is T2, Streptokinase A (Streptococcus pyogenes serotype M1, UniProt P10520).
T2 sequence (P10520 whole entry): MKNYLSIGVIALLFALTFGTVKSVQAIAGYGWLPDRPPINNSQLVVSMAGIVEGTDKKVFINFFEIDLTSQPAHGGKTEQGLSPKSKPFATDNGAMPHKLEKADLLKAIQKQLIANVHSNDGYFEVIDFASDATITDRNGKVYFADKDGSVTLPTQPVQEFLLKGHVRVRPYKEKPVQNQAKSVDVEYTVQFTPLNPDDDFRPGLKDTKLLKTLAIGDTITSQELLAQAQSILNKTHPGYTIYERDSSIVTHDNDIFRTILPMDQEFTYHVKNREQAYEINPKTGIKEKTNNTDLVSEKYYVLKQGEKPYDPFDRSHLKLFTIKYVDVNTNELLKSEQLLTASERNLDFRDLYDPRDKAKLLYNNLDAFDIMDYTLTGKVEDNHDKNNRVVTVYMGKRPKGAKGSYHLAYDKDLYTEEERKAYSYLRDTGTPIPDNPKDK
The experiment in a line: viability-normalized secreted streptokinase activity reduction – plasminogen activation absorbance, OD405, dose response (AID 1914).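 Also: secreted streptokinase activity via plasminogen activation per viability signal from cell pellet.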 The format is functional, Streptococcus pyogenes M1 GAS.

The nature of assay [3]: NIH-3T3 fibroblast cytotoxicity, dose response, cytotoxicity control, cell-based, fluorescence, Alamar Blue, secondary assay (AID 2327).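 Also: NIH-3T3 mouse fibroblasts cultured with fluconazole at 8 µg/mL.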 The class given is functional.
Another assay addresses Cytochrome P450 2C19 (Homo sapiens, UniProt P33261). The experiment in a line: Cytochrome panel assay with activity outcomes. Panel member name: p450-cyp2c19 Compounds with AC50 equal or less than 10 uM are considered active. The class given is functional. The settings on record: read-out: AC50.
A further assay has as its target T3, Cytochrome P450 1A2 (Homo sapiens, UniProt P05177).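 Also: PubChem cytochrome P450 panel assay, CYP1A2 panel member.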
T3 sequence (P05177 whole entry): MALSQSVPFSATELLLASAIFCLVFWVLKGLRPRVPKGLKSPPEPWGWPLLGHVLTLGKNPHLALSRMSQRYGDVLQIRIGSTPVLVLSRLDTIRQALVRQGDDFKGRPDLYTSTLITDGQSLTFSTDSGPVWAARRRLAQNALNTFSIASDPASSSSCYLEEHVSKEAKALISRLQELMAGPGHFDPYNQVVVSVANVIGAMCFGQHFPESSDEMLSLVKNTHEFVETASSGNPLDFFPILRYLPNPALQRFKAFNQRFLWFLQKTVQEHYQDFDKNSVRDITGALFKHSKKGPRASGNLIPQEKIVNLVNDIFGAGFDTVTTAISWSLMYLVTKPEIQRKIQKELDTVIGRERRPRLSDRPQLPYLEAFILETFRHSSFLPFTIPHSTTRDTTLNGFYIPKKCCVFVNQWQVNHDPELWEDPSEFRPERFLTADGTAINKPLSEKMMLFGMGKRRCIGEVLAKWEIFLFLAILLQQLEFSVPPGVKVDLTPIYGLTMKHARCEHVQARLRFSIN

Assay [4] in a line: Luminescence Cell-Based Dose Retest to Confirm Inhibitors of Cancer Stem Cells. [Related pubchem assays (depositor defined):AID2717, AID2721]. The class given is functional. The settings on record: Homo sapiens.

The source made the active and inactive calls.

Sequence of Cytochrome P450 3A4 (P08684 whole entry): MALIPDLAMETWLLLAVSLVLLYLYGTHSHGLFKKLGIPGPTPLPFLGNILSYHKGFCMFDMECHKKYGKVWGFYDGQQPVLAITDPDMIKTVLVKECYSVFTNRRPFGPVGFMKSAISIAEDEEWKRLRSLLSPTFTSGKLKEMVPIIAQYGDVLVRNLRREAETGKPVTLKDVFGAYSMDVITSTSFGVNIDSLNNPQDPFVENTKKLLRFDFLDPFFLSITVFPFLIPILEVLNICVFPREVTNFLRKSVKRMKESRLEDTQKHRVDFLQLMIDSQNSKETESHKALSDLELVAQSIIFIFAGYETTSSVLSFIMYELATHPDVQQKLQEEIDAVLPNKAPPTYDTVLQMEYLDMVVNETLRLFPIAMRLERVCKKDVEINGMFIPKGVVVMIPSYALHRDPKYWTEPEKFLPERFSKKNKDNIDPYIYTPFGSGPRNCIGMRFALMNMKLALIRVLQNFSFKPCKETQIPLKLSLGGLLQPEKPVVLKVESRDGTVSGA
Sequence of Cytochrome P450 2C19 (P33261 whole entry): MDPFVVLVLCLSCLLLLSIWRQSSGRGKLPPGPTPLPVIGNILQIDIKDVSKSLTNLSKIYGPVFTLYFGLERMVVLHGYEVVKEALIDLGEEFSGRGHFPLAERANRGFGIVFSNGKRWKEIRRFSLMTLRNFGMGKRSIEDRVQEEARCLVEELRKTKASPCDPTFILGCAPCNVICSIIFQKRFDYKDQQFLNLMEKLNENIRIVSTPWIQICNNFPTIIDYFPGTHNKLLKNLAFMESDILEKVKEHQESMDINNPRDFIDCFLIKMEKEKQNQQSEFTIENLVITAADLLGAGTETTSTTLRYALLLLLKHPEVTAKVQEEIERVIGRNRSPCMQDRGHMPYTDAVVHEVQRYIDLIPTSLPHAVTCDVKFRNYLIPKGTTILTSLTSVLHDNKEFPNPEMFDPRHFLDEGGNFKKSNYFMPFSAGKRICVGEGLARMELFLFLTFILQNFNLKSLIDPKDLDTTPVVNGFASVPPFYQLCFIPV
Sequence of Cytochrome P450 2D6 (P10635 whole entry): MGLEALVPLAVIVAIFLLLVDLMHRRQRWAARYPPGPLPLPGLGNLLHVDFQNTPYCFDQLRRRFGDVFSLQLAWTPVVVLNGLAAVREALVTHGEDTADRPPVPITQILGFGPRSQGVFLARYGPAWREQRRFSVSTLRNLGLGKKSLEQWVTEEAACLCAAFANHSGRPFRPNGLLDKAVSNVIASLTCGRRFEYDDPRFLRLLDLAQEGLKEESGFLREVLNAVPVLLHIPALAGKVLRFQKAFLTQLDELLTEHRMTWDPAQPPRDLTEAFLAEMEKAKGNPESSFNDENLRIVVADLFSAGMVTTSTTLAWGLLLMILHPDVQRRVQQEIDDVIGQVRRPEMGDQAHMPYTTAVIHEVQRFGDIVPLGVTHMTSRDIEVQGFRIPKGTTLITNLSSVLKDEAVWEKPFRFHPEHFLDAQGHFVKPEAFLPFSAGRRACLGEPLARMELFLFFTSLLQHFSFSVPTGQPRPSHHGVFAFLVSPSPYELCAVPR
Sequence of Cytochrome P450 2C9 (P11712 whole entry): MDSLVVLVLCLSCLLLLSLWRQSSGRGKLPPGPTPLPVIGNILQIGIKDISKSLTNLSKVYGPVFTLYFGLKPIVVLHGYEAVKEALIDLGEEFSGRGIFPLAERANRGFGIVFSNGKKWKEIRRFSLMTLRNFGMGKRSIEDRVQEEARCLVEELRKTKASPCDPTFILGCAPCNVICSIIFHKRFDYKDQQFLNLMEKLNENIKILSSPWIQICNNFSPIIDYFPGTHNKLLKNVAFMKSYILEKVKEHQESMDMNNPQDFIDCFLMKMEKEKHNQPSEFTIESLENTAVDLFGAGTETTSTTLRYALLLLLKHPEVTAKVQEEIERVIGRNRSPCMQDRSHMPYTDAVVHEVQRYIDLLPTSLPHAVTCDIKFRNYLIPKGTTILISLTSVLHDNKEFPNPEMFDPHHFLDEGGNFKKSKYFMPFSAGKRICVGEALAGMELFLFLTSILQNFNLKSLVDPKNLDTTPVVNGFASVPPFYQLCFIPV

In the case of `COCCCNC(=O)[C@H]1N2C(=O)c3ccccc3C2SC1(C)C` (stereo not given in full), the EC50 in assay [1] was > 53 µM (inactive).
The AC50 is the midpoint of the concentration-response curve, whichever way the signal moves. Take `O=C1CC[C@](CCc2nc3ccccc3[nH]2)(c2ccccc2)C(=O)N1`: the AC50 at Cytochrome P450 2D6 was 2.51 µM (inconclusive).
Still for that read-out and setting: in the case of `COc1ccc(C(=O)N2CCC3(CCCN(Cc4ccncc4)C3)CC2)cc1` it was 12.6 µM (inconclusive).
As to `Oc1ccc(-c2c(C3=CCCCC3)sc3ccccc23)cc1`, the EC50 in the assay with Streptococcus is 7.29 µM (active); in assay [2], 2.48 µM (active); on Streptokinase A it was 55.7 µM (inconclusive).
In the case of `N#Cc1c(-c2ccc(F)cc2)cc(C2CC2)nc1SCC(=O)c1cccs1`, the EC50 in assay [1] was > 53 µM (inactive).
As for `CC(C)N1CCN(c2ccncc2S(=O)(=O)N2CCCCC2)CC1`, the half-maximal activity concentration (AC50) on Cytochrome P450 2D6 was 3.98 µM (inconclusive).
The same measure, in the same setting: with `COc1cccc([C@H]2Oc3ccc(OC)cc3/C(=N\OC[C@@H](O)[C@@H]3O[C@@H]4OC(C)(C)O[C@@H]4[C@H]3O)[C@@H]2O)c1` the figure was 3.16 µM (inconclusive).
Take `COc1ccc(-c2cc(-c3c(O)c(OC)c4occc4c3OC)[nH]n2)cc1`: the EC50 in assay [3] is 25.8 µM (active).
For `CC(=O)Nc1ccc(Sc2ncccc2C(=O)Nc2ccc(F)cc2)cn1`, the concentration at half-maximal activity (AC50) at Cytochrome P450 2C19 was 39.8 µM (inconclusive); on Cytochrome P450 3A4 it was 15.8 µM (inconclusive); on Cytochrome P450 2C9, 10 µM (inconclusive). The EC50 in assay [1] is 1.97 µM (active).
Take `CCOC(=O)c1cnn(-c2nc3c(C)cccc3s2)c1C(F)(F)F`: the EC50 in the assay with Streptococcus was 16.6 µM (active); in assay [2] it was 9.35 µM (active); at Streptokinase A, 22.3 µM (active).
On the same counts, the results for `C[n+]1ccc(C=NNc2nc(Cl)c(C#N)c(Cl)c2Cl)cc1` are > 150 µM (not active), 33 µM (active) and > 150 µM (not active).
Take `CCN(CC)CCOC(=O)c1c(C)n(C)c2ccc(OC)cc12`: the AC50 on Cytochrome P450 2C19 is 39.8 µM (inconclusive); at Cytochrome P450 2D6, 28.2 µM (inconclusive).
`Cc1cccc(NC(=O)C2CCN(S(=O)(=O)c3cccc4nsnc34)CC2)n1`: the AC50 was 14.1 µM (inconclusive) on Cytochrome P450 2C9, 14.1 µM (inconclusive) on Cytochrome P450 2D6 and 0.0794 µM (inconclusive) on Cytochrome P450 1A2.
Take `Cc1cccc(NC(=N)Nc2nc(C)cc(C)n2)c1`: in assay [1], the EC50 is 10.7 µM (active).
For `CC1=NN(C(=O)c2ccncc2)C(=O)[C@@H]1/N=N\c1ccc2ccccc2c1`, the results for the AC50 at Cytochrome P450 2C19, on Cytochrome P450 3A4 and on Cytochrome P450 2D6 were 3.98 µM (inconclusive), 3.98 µM (inconclusive) and 3.16 µM (inconclusive), respectively.
As to `O=C(Nc1ccc2c(c1)CCC2)c1cc(S(=O)(=O)Nc2ccc(F)cc2)c(Cl)cc1Cl`, the AC50 in [4] is 4.35 µM (active). Moreover, the EC50 in the assay on Streptococcus was 15.2 µM (active); in assay [2] it was 3.5 µM (active); on Streptokinase A it was 3.26 µM (active).
Turning to `Cn1c2c(c(=O)n(C)c1=O)C1(C(=O)Nc3ccccc31)C(C#N)=C(N)O2` (stereo not given), the AC50 was 22.4 µM (inconclusive) at Cytochrome P450 3A4, 14.1 µM (inconclusive) on Cytochrome P450 2D6 and 25.1 µM (inconclusive) on Cytochrome P450 1A2.
As for `Cc1ccc(C)c(CSC2=NCCN2S(=O)(=O)c2ccccc2)c1`, the EC50 in the assay on Streptococcus was > 150 µM (not active); in assay [2], 21.7 µM (active); at Streptokinase A it was 17.3 µM (active).
For `FC(F)(F)c1ccccc1-c1nc(N2CCOCC2)c2ccccc2n1`, the results for the AC50 at Cytochrome P450 3A4 and at Cytochrome P450 2D6 were 12.6 µM (inconclusive) and 25.1 µM (inconclusive), respectively.
For `O=C(OCc1cccc(F)c1)c1ccc2c(c1)-c1ccccc1C2=O`, the figures for the AC50 at Cytochrome P450 2C9 and on Cytochrome P450 2D6 were 10 µM (inconclusive) and 0.355 µM (inconclusive), respectively.
As to `O=C(c1ccncc1)N1CCC2(CCN(Cc3ccncc3)CC2)CC1`, the AC50 is 15.8 µM (inconclusive) at Cytochrome P450 3A4, 20 µM (inconclusive) at Cytochrome P450 2C9 and 25.1 µM (inconclusive) on Cytochrome P450 2D6.
On to `FC(F)(F)c1cc(N2CCN(Cc3ccccc3)CC2)c2ccccc2n1`, for which the EC50 (in the assay with Streptococcus; in assay [2]; at Streptokinase A) was > 150 µM (not active) in each case.
Turning to `CCN(CC)c1ccc(-n2cc3c(=O)n(C)c(=O)n(C)c3c2)cc1`, the EC50 is 39.3 µM (active) in the assay on Streptococcus, 4.91 µM (active) in assay [2] and > 150 µM (not active) on Streptokinase A.
On to `COC(=O)C1(CC(C)C)C=C2C(=C(C(C)C)C(=O)C2C)CN1` (stereo not given), for which the AC50 at Cytochrome P450 2C19 was 25.1 µM (inconclusive); on Cytochrome P450 3A4, 20 µM (inconclusive); at Cytochrome P450 2D6, 25.1 µM (inconclusive); at Cytochrome P450 1A2 it was 15.8 µM (inconclusive).
Regarding `O=c1c(Oc2ccccc2Br)c(C(F)(F)F)oc2c(CN3CCCC3)c(O)ccc12`, the AC50 at Cytochrome P450 2C19 was 39.8 µM (inconclusive); at Cytochrome P450 2D6, 17.8 µM (inconclusive); at Cytochrome P450 1A2, 17.8 µM (inconclusive).
Take `Cc1ccc(S(=O)(=O)N/N=C/c2ccc(OC3CSC3)cc2)cc1`: the AC50 on Cytochrome P450 2C19 is 4.47 µM (inconclusive). In addition, the EC50 in assay [1] was 5.51 µM (active).
For `O=C(O)c1ccc2c(c1)C(=O)N(C(Cc1ccc(O)cc1)C(=O)O)C2=O` (stereo not given), the AC50 on Cytochrome P450 2D6 was 0.01 µM (inconclusive).
As to `C/C(=N\N=C(/N)SC1CC(=O)N(c2ccc(Cl)c(Cl)c2)C1=O)c1cccs1` (stereo not given), the AC50 in assay [4] was 3.86 µM (active). In addition, the EC50 with Streptococcus is 8.08 µM (active); in assay [2], 2.88 µM (active); at Streptokinase A it was 7.44 µM (inconclusive).
Taken in the same sequence, the figures for `Nc1c(S(=O)(=O)c2cccs2)c2nc3ccccc3nc2n1/N=C/c1cccc(O)c1` were 3.99 µM (active), 7.29 µM (active), 3.26 µM (active) and > 150 µM (not active).

The values are drawn from ChEMBL document CHEMBL1201862, “PubChem BioAssay data set” (2004).
